Experimental data taken from US20080234233A1, “MEDICAMENT FOR TREATMENT OF NEURODEGENERATIVE DISEASES” (INSTITUTE OF MEDICINAL MOLECULAR DESIGN INC., priority 2002, published 2008).

Test system: NF-κ B activation
Test: Inhibitory activity of NF-κB activation, luciferase reporter assay under TNF-α stimulation in HepG2
Assay type: cell-based, human
Conditions: HepG2, TNF-α 40 ng/ml, 4 hours; for inhibition at 1 µg/mL / inhibition at 10 µg/mL: Homo sapiens, read-out: Inhibitory rate against NF-κB activation (%)
How it was run: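 HepG2 cells transiently transfected with luciferase reporter carrying five tandem NF-κB binding sites, then stimulated with TNF-α (40 ng/ml) ± compound for 4 hours. Luminescent luciferase activity measured; inhibition expressed relative to activity without compound.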

Inhibitory rate against NF-κB activation (%) (Drug concentration at 10 μg/mL) | Compound | inhibition at 1 µg/mL (Drug concentration at 1 μg/mL) | inhibition at 10 µg/mL (Drug concentration at 10 μg/mL) | Inhibitory rate against NF-κB activation (%) (Drug concentration at 1 μg/mL)
 | Cc1nc(-c2ccc(O)c(C(=O)Nc3cc(C(F)(F)F)cc(C(F)(F)F)c3)c2)cs1 [compound 30, N-[3,5-Bis(trifluoromethyl)phenyl]-2-hydroxy-5-(2-methylthiazol-4-yl)benzamide] | 82.1% | 95.3% | 
 | COc1ccc(C(C)(C)C)cc1NC(=O)c1cc(Cl)ccc1O [compound 135, 5-chloro-N-{5-[(1,1-dimethyl)ethyl]-2-methoxyphenyl}-2-hydroxybenzamide] | 86.2% | 99.2% | 
95.0% | O=C(Nc1nc(Cc2ccccc2)c(-c2ccccc2)s1)c1cc(Br)ccc1O [compound 212] |  |  | 79.7%
88.4% | O=C(Nc1ccccc1)Nc1ccc(O)c(C(=O)Nc2cc(C(F)(F)F)cc(C(F)(F)F)c2)c1 [compound 46] |  |  | 20.5%
 | O=C(Nc1nc(-c2ccc(C(F)(F)F)cc2)cs1)c1cc(Cl)ccc1O [compound 261, 5-Chloro-2-hydroxy-N-{4-[4-(trifluoromethyl)phenyl]thiazol-2-yl}benzamide] | > 99.9% |  | 
 | C[Si](C)(C)C#Cc1ccc(O)c(C(=O)Nc2cc(C(F)(F)F)cc(C(F)(F)F)c2)c1 [compound 20, N-[3,5-bis(trifluoromethyl)phenyl]-2-hydroxy-5-[(trimethylsilyl)ethynyl]benzamide] | 91.1% | 94.9% | 
99.2% | CC(=NOCc1ccccc1)c1ccc(O)c(C(=O)Nc2cc(C(F)(F)F)cc(C(F)(F)F)c2)c1 [compound 15] |  |  | 94.5%
 | CC(=O)Oc1ccccc1C(=O)Nc1cc(C(F)(F)F)cc(C(F)(F)F)c1 [compound 1, 2-acetoxy-N-[3,5-bis(trifluoromethyl)phenyl]benzamide] | 90.9% | 97.1% | 
89.4% | O=C(Nc1nc(C(F)(F)F)c(-c2ccccc2)s1)c1cc(Br)ccc1O [compound 213] |  |  | 85.1%
 | CC(C)(C)c1nc(NC(=O)c2cc(Br)ccc2O)sc1Br [compound 186, 5-Bromo-N-{5-bromo-4-[(1,1-dimethyl)ethyl]thiazol-2-yl}-2-hydroxybenzamide] | 96.5% | 98.7% | 
 | O=C(Nc1nc(-c2cc(C(F)(F)F)cc(C(F)(F)F)c2)cs1)c1cc(Cl)ccc1O [compound 231, 5-Chloro-2-hydroxy-N-{4-[3,5-bis(trifluoromethyl)phenyl]thiazol-2-yl}benzamide] | 95.9% | 94.5% | 
99.4% | CCC(C)(C)c1ccc(O)c(NC(=O)c2cc(Cl)ccc2O)c1 [compound 177] |  |  | 87.8%
 | Cc1cccc(C(=O)Nc2cc(C(F)(F)F)cc(C(F)(F)F)c2)c1O [compound 58, N-[3,5-bis(trifluoromethyl)phenyl]-2-hydroxy-3-methylbenzamide] | 88.2% | 95% | 
 | COC(=O)c1ccc(O)c(C(=O)Nc2cc(C(F)(F)F)cc(C(F)(F)F)c2)c1 [compound 35, N-[3,5-bis(trifluoromethyl)phenyl]-4-hydroxyisophthalamic acid methyl ester] | 88.2% | 96.4% | 
96.8% | COc1ccc(OC)c(NC(=O)c2cc(Cl)ccc2O)c1 [compound 158] |  |  | 52.4%
70.6% | O=C(Nc1cc(Cl)cc(Cl)c1)c1cc([N+](=O)[O-])ccc1O [compound 130] |  |  | 

Inhibitory rate against NF-κB activation (%) (Drug concentration at 10 μg/mL) | Compound | inhibition at 1 µg/mL (Drug concentration at 1 μg/mL) | inhibition at 10 µg/mL (Drug concentration at 10 μg/mL) | Inhibitory rate against NF-κB activation (%) (Drug concentration at 1 μg/mL)
85.7% | O=C(Nc1cnc2ccccc2c1)c1cc(Cl)ccc1O [compound 242] |  |  | 
 | CCOC(=O)c1sc(NC(=O)c2cc(-c3cccs3)ccc2O)nc1-c1ccccc1 [compound 230, 2-[2-Hydroxy-5-(2-thienyl)benzoyl]amino-4-phenylthiazole-5-carboxylic acid ethyl ester] | 40.8% | 84.8% | 
 | CCOC(=O)c1sc(NC(=O)c2cc(Br)ccc2O)nc1-c1c(F)c(F)c(F)c(F)c1F [compound 219, Ethyl 2-(5-bromo-2-hydroxybenzoyl)amino-4-(pentafluorophenyl)thiazole-5-carboxylate] | 82.2% | 96% | 
 | CC(=O)c1sc(NC(=O)c2cc(Br)ccc2O)nc1-c1ccccc1 [compound 214, 5-Bromo-N-(5-acetyl-4-phenylthiazol-2-yl)-2-hydroxybenzamide] | 70.2% | 95.9% | 
 | Cc1nc(NC(=O)c2cc(Br)ccc2O)sc1-c1ccc(F)cc1 [compound 193, 5-Bromo-N-[4-methyl-5-(4-fluorophenyl)thiazol-2-yl]-2-hydroxybenzamide] |  | 82% | 
89.6% | O=C(Nc1cc(N2CCOCC2)ccc1[N+](=O)[O-])c1cc(Cl)ccc1O [compound 174] |  |  | 
78.9% | COc1cc(Cl)nc(NC(=O)c2cc(Cl)ccc2O)n1 [compound 241] |  |  | 25.5%
92.6% | Cc1cc(C)cc(NC(=O)c2cc(Br)ccc2O)c1 [compound 137] |  |  | 86.3%
 | CCc1nc(NC(=O)c2cc(Br)ccc2O)oc1CC [compound 234, 5-Bromo-N-(4,5-diethyloxazol-2-yl)-2-hydroxybenzamide] | 29.1% | 63.1% | 
85.4% | CCOC(=O)c1c(NC(=O)c2cc(Cl)ccc2O)sc2c1CCCC2 [compound 232] |  |  | 88.2%
96.8% | O=C(Nc1cc(F)cc(F)c1)c1cc(Br)ccc1O [compound 123] |  |  | 91.8%
96.0% | CC(O)c1ccc(O)c(C(=O)Nc2cc(C(F)(F)F)cc(C(F)(F)F)c2)c1 (stereo not drawn) [compound 13] |  |  | 76.8%
86.8% | COc1ccc(OC)c(NC(=O)c2cc3ccccc3cc2O)c1 [compound 183] |  |  | 
98.3% | CCC(C)(C)c1ccc(Oc2ccccc2)c(NC(=O)c2cc(Cl)ccc2O)c1 [compound 164] |  |  | 97.6%
91.3% | CC(C)NC(=O)c1sc(NC(=O)c2cc(Br)ccc2O)nc1-c1ccccc1 [compound 222] |  |  | 49.6%
85.8% | CCOC(=O)c1sc(NC(=O)c2cc(-c3ccc(F)cc3)ccc2O)nc1-c1ccccc1 [compound 226] |  |  | 45.0%

Compound | Inhibitory rate against NF-κB activation (%) (Drug concentration at 10 μg/mL) | inhibition at 1 µg/mL (Drug concentration at 1 μg/mL) | inhibition at 10 µg/mL (Drug concentration at 10 μg/mL) | Inhibitory rate against NF-κB activation (%) (Drug concentration at 1 μg/mL)
Cc1ccc(C(=O)Nc2cc(C(F)(F)F)cc(C(F)(F)F)c2)c(O)c1 [compound 53] | 94.5% |  |  | 93.3%
O=C(Nc1cc(C(F)(F)F)ccc1Cl)c1cc(Br)ccc1O [compound 90] | 94.1% |  |  | 88.9%
CCOC(=O)c1sc(NC(=O)c2cc(-c3ccc(C(F)(F)F)cc3)ccc2O)nc1-c1ccccc1 [compound 228, 2-{[4-Hydroxy-4′-(trifluoromethyl)biphenyl]-3-carbonyl}amino-4-phenylthiazole-5-carboxylic acid ethyl ester] | 90.0% |  |  | 
CNC(=O)c1sc(NC(=O)c2cc(Br)ccc2O)nc1-c1ccccc1 [compound 220] | 58.6% |  |  | 50.8%
O=C(Nc1cc(C(F)(F)F)ccc1Oc1ccc(Cl)cc1Cl)c1cc(Cl)ccc1O [compound 111] | 99.7% |  |  | 96.5%
O=C(Nc1cc(C(F)(F)F)cc(C(F)(F)F)c1)c1ccc(O)cc1O [compound 55] | 88.6% |  |  | 10.8%
O=C(Nc1cc(C(F)(F)F)cc(C(F)(F)F)c1)c1cc(-n2cccc2)ccc1O [compound 27] | 97.9% |  |  | 93.8%
Cc1ccc(C(C)C)cc1NC(=O)c1cc(Cl)ccc1O [compound 151] | 98.2% |  |  | 85.8%
O=C(Nc1cc(C(F)(F)F)ccc1C(F)(F)F)c1cc(Br)ccc1O [compound 268] | 98.4% |  |  | 87.1%
CC(C)(C)c1ccc(C(C)(C)C)c(NC(=O)c2cc(Cl)ccc2O)c1 [compound 134] | 96.3% |  |  | 89.1%
O=C(Nc1cc(C(F)(F)F)cc(C(F)(F)F)c1)c1cc(C(F)(F)C(F)(F)F)ccc1O [compound 26] | 95.4% |  |  | 93.3%
O=C(Nc1cc(C(F)(F)F)ccc1Br)c1cc(Cl)ccc1O [compound 107] | 96.2% |  |  | 94.9%
O=C(Nc1cc(C(F)(F)F)cc(C(F)(F)F)c1)c1cccc(Cl)c1O [compound 64] | 94.1% |  |  | 84.9%
CC(C)(C)c1cc(NC(=O)c2cc([N+](=O)[O-])ccc2O)cc(C(C)(C)C)c1 [compound 146] | 98.5% |  |  | 91.2%
O=C(Nc1cc(C(F)(F)F)ccc1Cl)c1cc([N+](=O)[O-])ccc1O [compound 99] | 98.0% |  |  | 54.3%
